According to US20160257697A1, “THIOPHENE-SUBSTITUTED TETRACYCLIC COMPOUNDS AND METHODS OFUSE THEREOF FOR THE TREATMENT OF VIRAL DISEASES” (priority 2013, published 2016):
pIC50: −log10 of the molar value. Read-outs that look alike come from different tables or passages of the source.

Key:
Test in all cases: microbe, parasite or virus in culture
Format in all cases: cell-based, Hepatitis C virus (HCV)
[1] = system: HCV replicon 1AQ30D; details: Replicon Assay B
[2] = system: HCV replicon 1B; details: Replicon Assay B
[3] = system: HCV replicon 1A; details: Replicon Assay A
Method in brief: (§1)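 Replicon cells were seeded at 2000 cells/well with test compound in 0.5% DMSO and 5% FBS, then harvested on day 3. Replicon RNA was measured by multiplex TaqMan real-time RT-PCR, using cyclophilin RNA as the endogenous control and quantified against standard curves of HCV replicon total RNA.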

[4] = system: HCV replicon 1AY93H
Method in brief: as §1

[5] = system: HCV replicon 2B
Method in brief: as §1

[6] = read-out: 1A Y93H IC50; HCV replicon 1A Y93H; Replicon Assay A
[7] = read-out: 2B IC50; HCV replicon 2B; Replicon Assay A
[8] = read-out: 1A Q30D IC50, replicon 1AQ30D
[9] = read-out: 1A Y93H IC50; replicon 1AY93H; Replicon Assay A
[10] = read-out: 2B IC50; replicon 2B; Replicon Assay A
[11] = Hepatitis C virus, read-out: 1A Q30D IC50, HCV replicon 1A Q30D

`COC(=O)N[C@H](C(=O)N1CCC[C@H]1c1ncc(-c2cc(F)c3c(c2)OC(c2ccc(C(C)(C)C)s2)n2c-3cc3cc(-c4cnc([C@@H]5CCCN5C(=O)[C@@H](NC(=O)OC)C(C)C)[nH]4)ccc32)[nH]1)C(C)C` (single isomer, unassigned) [Compound 63] showed a pIC50 ([1]; replicon 1AQ30D, read-out: 1A Q30D IC50) of 9.47, a pIC50 ([2]; replicon 1B) of 11.62 and a pIC50 ([3]; replicon 1A) of 11.49. For the same compound, the pIC50 ([4]; replicon 1AY93H; Replicon Assay A; read-out: 1A Y93H IC50) was 11.00 and the pIC50 ([5]; replicon 2B; Replicon Assay A; read-out: 2B IC50) was 9.57.
`CCc1ccc(C2Oc3cc(-c4cnc([C@@H]5CCCN5C(=O)[C@@H](NC(=O)OC)C(C)C)[nH]4)ccc3-c3c(F)c4cc(-c5cnc([C@@H]6CCCN6C(=O)C(NC(=O)OC)C6C[C@@H](C)O[C@@H](C)C6)[nH]5)ccc4n32)s1` (single isomer, unassigned) [Compound 635] was tested, and the pIC50 ([1]; read-out: 1A Q30D IC50, HCV replicon 1A Q30D) was 9.13, the pIC50 ([2]; HCV replicon 1B) was 11.62 and the pIC50 ([3]; HCV replicon 1A) was 11.62. For the same compound, the pIC50 [4, 6] was 10.57 and the pIC50 [5, 7] was 10.65.
Work on `COC(=O)NC(C(=O)N1CCCC1c1ncc(-c2cc(F)c3c(c2)OC(c2cc4c(s2)CC2(C4)OCCO2)n2c-3cc3cc(-c4cnc(C5CCCN5C(=O)C(NC(=O)OC)C(C)C)[nH]4)ccc32)[nH]1)C(C)C` (mixture of isomers) [Compound 847] yielded a pIC50 ([1]; HCV replicon 1A Q30D, read-out: 1A Q30D IC50) of 8.75, a pIC50 ([2]; HCV replicon 1B) of 11.30 and a pIC50 ([3]; HCV replicon 1A) of 11.42. For the same compound, the pIC50 ([4]; HCV replicon 1A Y93H; Replicon Assay A; read-out: 1A Y93H IC50) was 9.67 and the pIC50 ([5]; HCV replicon 2B; Replicon Assay A; read-out: 2B IC50) was 9.51.
`COC(=O)NC(C(=O)N1CCC[C@H]1c1ncc(-c2ccc3c(c2)cc2n3C(c3cc4ccccc4s3)Oc3cc(-c4cnc([C@@H]5CCCN5C(=O)[C@@H](NC(=O)OC)C5CCOCC5)[nH]4)cc(F)c3-2)[nH]1)C(C)(C)F` (single isomer, unassigned) [Compound 183] gave a pIC50 [1, 8] of 8.97, a pIC50 ([2]; replicon 1B) of 11.62 and a pIC50 ([3]; replicon 1A) of 11.92. The pIC50 [4, 9] was 9.13 and the pIC50 [5, 10] was 9.17.
`CCc1ccc(C2Oc3cc(-c4cnc([C@@H]5CCCN5C(=O)[C@@H](NC(=O)OC)C(C)C)[nH]4)cc(F)c3-c3cc4cc(-c5cnc([C@@H]6CCCN6C(=O)[C@@H](NC(=O)OC)C(C)C)[nH]5)ccc4n32)s1` (single isomer, unassigned) [Compound 3] showed an IC50 ([1]; Hepatitis C virus, read-out: 1A Q30D IC50 (nM), replicon 1AQ30D) of 50.6 nM, a pIC50 ([2]; Hepatitis C virus, replicon 1B) of 11.92 and a pIC50 ([3]; Hepatitis C virus, replicon 1A) of 11.44. It also gave an IC50 ([4]; Hepatitis C virus, read-out: 1A Y93H IC50 (nM), replicon 1AY93H; Replicon Assay A) of 4.7 nM and an IC50 ([5]; Hepatitis C virus, read-out: 2B IC50 (nM), replicon 2B; Replicon Assay A) of 4.45 nM.
Compound `COCc1ccc(C2Oc3cc(-c4cnc([C@@H]5CCCN5C(=O)[C@@H](NC(=O)OC)C(C)C)[nH]4)cc(F)c3-c3cc4cc(-c5c[nH]c([C@@H]6CCCN6C(=O)[C@@H](NC(=O)OC)C(C)C)n5)ccc4n32)s1` (single isomer, unassigned) [Compound 513] has a pIC50 [1, 11] of 9.01, a pIC50 ([2]; Hepatitis C virus, HCV replicon 1B) of 11.37 and a pIC50 ([3]; HCV replicon 1A) of 11.41. It also gave a pIC50 [4, 6] of 10.41 and a pIC50 [5, 7] of 9.39.
`COC(=O)N[C@H](C(=O)N1CCC[C@H]1c1ncc(-c2cc(F)c3c(c2)OC(c2cc4c(s2)CCC4)n2c-3cc3cc(-c4cnc([C@@H]5C[C@H]6C[C@H]6N5C(=O)[C@@H](NC(=O)OC)C5CCOCC5)[nH]4)ccc32)[nH]1)C(C)C` (single isomer, unassigned) [Compound 541] showed a pIC50 [1, 11] of 9.52, a pIC50 ([2]; HCV replicon 1B) of 10.63 and a pIC50 ([3]; HCV replicon 1A) of 10.83. It also gave a pIC50 [4, 6] of 8.66 and a pIC50 [5, 7] of 10.02.
Compound `COC(=O)NC(C(=O)N1[C@@H]2C[C@@H]2C[C@H]1c1ncc(-c2ccc3c(c2)cc2n3C(c3ccc(C4CC4)s3)Oc3cc(-c4cnc([C@@H]5CCCN5C(=O)[C@@H](NC(=O)OC)C(C)C)[nH]4)cc(F)c3-2)[nH]1)C1C[C@@H](C)O[C@@H](C)C1` (single isomer, unassigned) [Compound 273] has a pIC50 [1, 8] of 8.69, a pIC50 ([2]; replicon 1B) of 11.70 and a pIC50 ([3]; replicon 1A) of 11.82. The pIC50 [4, 9] was 9.74 and the pIC50 [5, 10] was 9.13.
Compound `CCc1ccc(C2Oc3cc(-c4cnc([C@@H]5CCCN5C(=O)[C@@H](NC(=O)OC)C(C)C)[nH]4)cc(F)c3-c3cc4cc(-c5cnc([C@@H]6C[C@@H](F)CN6C(=O)C(NC(=O)OC)C6CCOC(C)(C)C6)[nH]5)ccc4n32)s1` (single isomer, unassigned) [Compound 259] has a pIC50 [1, 8] of 9.51, a pIC50 ([2]; replicon 1B) of 11.48 and a pIC50 ([3]; replicon 1A) of 11.51. It also gave a pIC50 [4, 9] of 11.70 and a pIC50 [5, 10] of 9.49.
